Laboratory results: the NIST ThermoML archive (doi:10.1021/acs.jced.5b00838)

Experiment: excess molar enthalpy (molar enthalpy of mixing); xn = mol fraction of the nth substance listed
Conditions: 100 kPa, Liquid, isothermal titration calorimetry

CCCCCCOCC [1-ethoxyhexane] + CC#N
Conditions | excess molar enthalpy [kcal/mol]
298.15 K, x2 = 0.0307 | 0.028
298.15 K, x2 = 0.0596 | 0.0608
298.15 K, x2 = 0.0868 | 0.0887
298.15 K, x2 = 0.1125 | 0.112
298.15 K, x2 = 0.1368 | 0.132
298.15 K, x2 = 0.1816 | 0.166
298.15 K, x2 = 0.222 | 0.192
298.15 K, x2 = 0.2586 | 0.212
298.15 K, x2 = 0.2919 | 0.228
298.15 K, x2 = 0.3223 | 0.241
298.15 K, x2 = 0.3759 | 0.26
298.15 K, x2 = 0.4217 | 0.271
298.15 K, x2 = 0.4612 | 0.278
298.15 K, x2 = 0.5038 | 0.282
298.15 K, x2 = 0.5401 | 0.283
298.15 K, x2 = 0.5715 | 0.282
298.15 K, x2 = 0.5988 | 0.279
298.15 K, x2 = 0.6274 | 0.275
298.15 K, x2 = 0.6521 | 0.27
298.15 K, x2 = 0.6738 | 0.265
298.15 K, x2 = 0.6959 | 0.258
298.15 K, x2 = 0.7006 | 0.255
298.15 K, x2 = 0.7152 | 0.251
298.15 K, x2 = 0.7222 | 0.247
298.15 K, x2 = 0.7322 | 0.245
298.15 K, x2 = 0.7452 | 0.238
298.15 K, x2 = 0.7473 | 0.239
298.15 K, x2 = 0.7608 | 0.232
298.15 K, x2 = 0.7698 | 0.226
298.15 K, x2 = 0.796 | 0.212
298.15 K, x2 = 0.8241 | 0.194
298.15 K, x2 = 0.8419 | 0.182
298.15 K, x2 = 0.8604 | 0.167
298.15 K, x2 = 0.8799 | 0.151
298.15 K, x2 = 0.9002 | 0.131
298.15 K, x2 = 0.9215 | 0.108
298.15 K, x2 = 0.9362 | 0.091
298.15 K, x2 = 0.9514 | 0.0718
298.15 K, x2 = 0.967 | 0.0504
298.15 K, x2 = 0.9832 | 0.0264
308.15 K, x2 = 0.0303 | 0.0333
308.15 K, x2 = 0.0588 | 0.0672
308.15 K, x2 = 0.0857 | 0.0959
308.15 K, x2 = 0.1111 | 0.121
308.15 K, x2 = 0.1352 | 0.142
308.15 K, x2 = 0.1795 | 0.177
308.15 K, x2 = 0.2196 | 0.204
308.15 K, x2 = 0.2559 | 0.226
308.15 K, x2 = 0.2889 | 0.242
308.15 K, x2 = 0.3192 | 0.256
308.15 K, x2 = 0.3726 | 0.275
308.15 K, x2 = 0.4182 | 0.287
308.15 K, x2 = 0.4577 | 0.294
308.15 K, x2 = 0.5002 | 0.298
308.15 K, x2 = 0.5366 | 0.299
308.15 K, x2 = 0.568 | 0.297
308.15 K, x2 = 0.5954 | 0.294
308.15 K, x2 = 0.6241 | 0.29
308.15 K, x2 = 0.6489 | 0.285
308.15 K, x2 = 0.6707 | 0.279
308.15 K, x2 = 0.6929 | 0.272
308.15 K, x2 = 0.7087 | 0.264
308.15 K, x2 = 0.7123 | 0.265
308.15 K, x2 = 0.7294 | 0.258
308.15 K, x2 = 0.73 | 0.256
308.15 K, x2 = 0.7446 | 0.251
308.15 K, x2 = 0.7526 | 0.246
308.15 K, x2 = 0.7582 | 0.245
308.15 K, x2 = 0.7767 | 0.233
308.15 K, x2 = 0.8023 | 0.217
308.15 K, x2 = 0.8297 | 0.198
308.15 K, x2 = 0.847 | 0.185
308.15 K, x2 = 0.8651 | 0.17
308.15 K, x2 = 0.884 | 0.152
308.15 K, x2 = 0.9037 | 0.132
308.15 K, x2 = 0.9243 | 0.108
308.15 K, x2 = 0.9385 | 0.0909
308.15 K, x2 = 0.9531 | 0.0718
308.15 K, x2 = 0.9683 | 0.0503
308.15 K, x2 = 0.9839 | 0.0263

CCCCCCCOC [1-methoxyheptane] + CC#N
excess molar enthalpy [kcal/mol]
Conditions | 298.15 K | 308.15 K
x2 = 0.0304 | – | 0.0322
x2 = 0.0307 | 0.0291 | –
x2 = 0.059 | – | 0.0602
x2 = 0.0595 | 0.0573 | –
x2 = 0.0859 | – | 0.0845
x2 = 0.0867 | 0.0816 | –
x2 = 0.1114 | – | 0.106
x2 = 0.1123 | 0.103 | –
x2 = 0.1354 | – | 0.125
x2 = 0.1366 | 0.121 | –
x2 = 0.1799 | – | 0.156
x2 = 0.1813 | 0.151 | –
x2 = 0.22 | – | 0.181
x2 = 0.2216 | 0.175 | –
x2 = 0.2563 | – | 0.201
x2 = 0.2582 | 0.194 | –
x2 = 0.2894 | – | 0.216
x2 = 0.2914 | 0.209 | –
x2 = 0.3197 | – | 0.229
x2 = 0.3218 | 0.221 | –
x2 = 0.3732 | – | 0.248
x2 = 0.3754 | 0.239 | –
x2 = 0.4188 | – | 0.26
x2 = 0.4212 | 0.25 | –
x2 = 0.4583 | – | 0.268
x2 = 0.4607 | 0.258 | –
x2 = 0.5008 | – | 0.273
x2 = 0.5033 | 0.263 | –
x2 = 0.5372 | – | 0.275
x2 = 0.5396 | 0.264 | –
x2 = 0.5686 | – | 0.275
x2 = 0.571 | 0.264 | –
x2 = 0.596 | – | 0.273
x2 = 0.5983 | 0.263 | –
x2 = 0.6246 | – | 0.269
x2 = 0.6269 | 0.259 | –
x2 = 0.6494 | – | 0.265
x2 = 0.6517 | 0.256 | –
x2 = 0.6712 | – | 0.261
x2 = 0.6733 | 0.251 | –
x2 = 0.6934 | – | 0.255
x2 = 0.6955 | 0.246 | –
x2 = 0.7111 | 0.239 | 0.255
x2 = 0.7148 | 0.24 | 0.249
x2 = 0.7318 | 0.234 | 0.248
x2 = 0.7322 | 0.232 | 0.243
x2 = 0.7469 | 0.228 | 0.238
x2 = 0.7547 | 0.223 | 0.237
x2 = 0.7604 | 0.223 | 0.231
x2 = 0.7692 | – | 0.227
x2 = 0.7786 | 0.212 | –
x2 = 0.7954 | – | 0.213
x2 = 0.8041 | 0.199 | –
x2 = 0.8236 | – | 0.195
x2 = 0.8313 | 0.182 | –
x2 = 0.8414 | – | 0.182
x2 = 0.8485 | 0.171 | –
x2 = 0.86 | – | 0.168
x2 = 0.8664 | 0.157 | –
x2 = 0.8795 | – | 0.151
x2 = 0.8851 | 0.141 | –
x2 = 0.8999 | – | 0.131
x2 = 0.9047 | 0.123 | –
x2 = 0.9212 | – | 0.109
x2 = 0.9251 | 0.101 | –
x2 = 0.936 | – | 0.0913
x2 = 0.9391 | 0.0851 | –
x2 = 0.9512 | – | 0.0721
x2 = 0.9536 | 0.0668 | –
x2 = 0.9669 | – | 0.0506
x2 = 0.9686 | 0.0464 | –
x2 = 0.9832 | – | 0.0265
x2 = 0.9841 | 0.0235 | –

CCCCCOCCC [1-propoxypentane] + CC#N
Conditions | excess molar enthalpy [kcal/mol]
298.15 K, x2 = 0.031 | 0.041
298.15 K, x2 = 0.0602 | 0.0775
298.15 K, x2 = 0.0876 | 0.108
298.15 K, x2 = 0.1135 | 0.133
298.15 K, x2 = 0.1379 | 0.155
298.15 K, x2 = 0.183 | 0.191
298.15 K, x2 = 0.2236 | 0.219
298.15 K, x2 = 0.2604 | 0.24
298.15 K, x2 = 0.2938 | 0.256
298.15 K, x2 = 0.3243 | 0.27
298.15 K, x2 = 0.3781 | 0.288
298.15 K, x2 = 0.424 | 0.298
298.15 K, x2 = 0.4635 | 0.304
298.15 K, x2 = 0.5061 | 0.307
298.15 K, x2 = 0.5424 | 0.306
298.15 K, x2 = 0.5738 | 0.304
298.15 K, x2 = 0.6011 | 0.301
298.15 K, x2 = 0.6296 | 0.296
298.15 K, x2 = 0.6542 | 0.29
298.15 K, x2 = 0.6758 | 0.284
298.15 K, x2 = 0.6979 | 0.276
298.15 K, x2 = 0.7171 | 0.269
298.15 K, x2 = 0.734 | 0.262
298.15 K, x2 = 0.7491 | 0.255
298.15 K, x2 = 0.7625 | 0.248
298.15 K, x2 = 0.7644 | 0.242
298.15 K, x2 = 0.7829 | 0.232
298.15 K, x2 = 0.8022 | 0.221
298.15 K, x2 = 0.8226 | 0.207
298.15 K, x2 = 0.844 | 0.191
298.15 K, x2 = 0.8666 | 0.172
298.15 K, x2 = 0.8807 | 0.159
298.15 K, x2 = 0.8953 | 0.145
298.15 K, x2 = 0.9104 | 0.128
298.15 K, x2 = 0.926 | 0.11
298.15 K, x2 = 0.9421 | 0.089
298.15 K, x2 = 0.9531 | 0.0741
298.15 K, x2 = 0.9644 | 0.0577
298.15 K, x2 = 0.976 | 0.0399
298.15 K, x2 = 0.9879 | 0.0207
308.15 K, x2 = 0.0305 | 0.0427
308.15 K, x2 = 0.0592 | 0.0799
308.15 K, x2 = 0.0863 | 0.111
308.15 K, x2 = 0.1118 | 0.137
308.15 K, x2 = 0.136 | 0.16
308.15 K, x2 = 0.1806 | 0.197
308.15 K, x2 = 0.2208 | 0.225
308.15 K, x2 = 0.2572 | 0.247
308.15 K, x2 = 0.2904 | 0.265
308.15 K, x2 = 0.3207 | 0.278
308.15 K, x2 = 0.3742 | 0.297
308.15 K, x2 = 0.4199 | 0.309
308.15 K, x2 = 0.4594 | 0.315
308.15 K, x2 = 0.502 | 0.319
308.15 K, x2 = 0.5383 | 0.319
308.15 K, x2 = 0.5697 | 0.317
308.15 K, x2 = 0.6022 | 0.312
308.15 K, x2 = 0.6301 | 0.307
308.15 K, x2 = 0.6543 | 0.301
308.15 K, x2 = 0.6756 | 0.295
308.15 K, x2 = 0.6944 | 0.288
308.15 K, x2 = 0.7137 | 0.281
308.15 K, x2 = 0.7173 | 0.276
308.15 K, x2 = 0.7308 | 0.273
308.15 K, x2 = 0.7382 | 0.267
308.15 K, x2 = 0.7459 | 0.266
308.15 K, x2 = 0.7595 | 0.259
308.15 K, x2 = 0.7603 | 0.256
308.15 K, x2 = 0.7838 | 0.242
308.15 K, x2 = 0.8089 | 0.226
308.15 K, x2 = 0.8355 | 0.206
308.15 K, x2 = 0.8524 | 0.192
308.15 K, x2 = 0.8699 | 0.176
308.15 K, x2 = 0.8882 | 0.157
308.15 K, x2 = 0.9072 | 0.136
308.15 K, x2 = 0.9271 | 0.112
308.15 K, x2 = 0.9409 | 0.0938
308.15 K, x2 = 0.955 | 0.0737
308.15 K, x2 = 0.9695 | 0.0515
308.15 K, x2 = 0.9845 | 0.027
